Where a name gives a salt, the structure may show the parent alone.
system: T1, primary mouse cortical neurons; test: cells; set-up: Protection from NMDA-induced (30 uM, 10 min) neuronal death; Hoechst nuclear morphology by automated microscopy; conditions: Cortical neurone, 20 h, read-out: % inhibition, inhibition of NMDA-induced cell death (protection score), 30 min pre-treatment
T1 construct: primary cortical neurons, DIV 10
Procedure, shortened: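 On DIV 10, primary mouse cortical neurons were given compound at 10 μM for 30 min at 37 °C, then 30 μM NMDA for 10 min, washed, and kept 20 h with compound. Dead cells were scored by nuclear morphology, and % protection was derived from survival relative to vehicle + NMDA and untreated controls.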

Point of comparison: C=C1C(=O)[C@]23[C@H](O)[C@H]1CC[C@H]2[C@@]12CO[C@]3(O)[C@@H](O)[C@@H]1C(C)(C)CC[C@@H]2O [Oridonin (Isodonol)], inhibition at 10 µM -2.85%. Against it:
- Cc1ccc(NC(=O)c2ccc(CN3CCN(C)CC3)cc2)cc1Nc1nc(-c2cccnc2)cs1 [Masitinib (AB1010)] — lower, -5.13%
- O=C1CCC[C@@H]2[C@H]3CCCN4CCC[C@@H](CN12)[C@@H]34 [Matrine ((+)-Matrine)] — lower, -4.08%
- CC(=O)O[C@]1(C(C)=O)CC[C@H]2[C@@H]3C=C(C)C4=CC(=O)CC[C@]4(C)[C@H]3CC[C@@]21C [Megestrol Acetate] — lower, -7.04%
- S=c1[nH]cnc2nc[nH]c12 [Mercaptopurine] — lower, -8.52%
- Nc1ccc(O)c(C(=O)O)c1 [Mesalamine (Lialda)] — higher, 21.8%
- O=S(=O)(O)CCS [Mesna (Uromitexan, Mesnex)] — higher, -0.811%
- C#C[C@]1(O)CC[C@H]2[C@@H]3CCc4cc(OC)ccc4[C@H]3CC[C@@]21C [Mestranol] — higher, 11.8%
- CN(C)C(=N)NC(=N)N [Metformin hydrochloride (Glucophage)] — higher, 10.2%
- C=C1c2cccc(O)c2C(O)=C2C(=O)[C@]3(O)C(O)=C(C(N)=O)C(=O)[C@@H](N(C)C)[C@@H]3[C@@H](O)[C@H]12 [Methacycline hydrochloride (Physiomycine)] — higher, 13.5%
- Cn1nnc2c(C(N)=O)ncn2c1=O [Methazolastone] — higher, 14.3%
- Cn1ccnc1S [Methimazole (Tapazole, Northyx)] — higher, 15.5%
- COc1ccccc1OCC(O)COC(N)=O (stereo not shown) [Methocarbamol (Robaxin)] — higher, -0.235%
- COc1c2occc2cc2ccc(=O)oc12 [Methoxsalen (Oxsoralen)] — lower, -4.76%
- COc1ccc([C@@H]2CC(=O)c3c(O)cc(O[C@@H]4O[C@H](CO[C@@H]5O[C@@H](C)[C@H](O)[C@@H](O)[C@H]5O)[C@@H](O)[C@H](O)[C@H]4O)cc3O2)cc1OC [Methyl-Hesperidin] — higher, -2.33%
- C[C@H]1C[C@@H]2[C@H]([C@@H](O)C[C@@]3(C)[C@H]2CC[C@]3(O)C(=O)CO)[C@@]2(C)C=CC(=O)C=C12 [Methylprednisolone] — higher, 7.52%
- Cc1ccccc1N1C(=O)c2cc(S(N)(=O)=O)c(Cl)cc2NC1C (stereo not shown) [Metolazone (Zaroxolyn)] — higher, 27.9%
- CN1CCN2c3ccccc3Cc3ccccc3C2C1 (stereo not shown) [Mianserin hydrochloride] — higher, -2.1%
- Cc1[nH]c(=O)c(C#N)cc1-c1ccncc1 [Milrinone (Primacor)] — lower, -10.4%
- N=c1nc(N2CCCCC2)cc(N)n1O [Minoxidil] — higher, -1.14%
- CC[C@@]1([C@@H]2O[C@@H]([C@H]3O[C@@](O)(CO)[C@H](C)C[C@@H]3C)C[C@@H]2C)CC[C@H]([C@]2(C)CC[C@]3(C[C@H](O)[C@@H](C)[C@@H]([C@@H](C)[C@@H](OC)[C@H](C)C(=O)O)O3)O2)O1 [Monensin sodium salt (Coban)] — higher, 3.22%
- Oc1ccc(OCc2ccccc2)cc1 [Monobenzone (Benoquin)] — higher, 49.3%
- O=c1c(O)c(-c2ccc(O)cc2O)oc2cc(O)cc(O)c12 [Morin hydrate (Aurantica)] — higher, -2.71%
- N=C(N)NC(=N)N1CCOCC1 [Moroxydine] — higher, 0.926%
- COc1c(N2C[C@@H]3CCCN[C@@H]3C2)c(F)cc2c(=O)c(C(=O)O)cn(C3CC3)c12 [Moxifloxacin hydrochloride] — higher, 0.0291%
- COc1c(C)c2c(c(O)c1C/C=C(\C)CCC(=O)OCCN1CCOCC1)C(=O)OC2 [Mycophenolate mofetil (CellCept)] — higher, 4.41%
- COc1c(C)c2c(c(O)c1C/C=C(\C)CCC(=O)O)C(=O)OC2 [Mycophenolic (Mycophenolate)] — lower, -10.2%
- O=c1c(O)c(-c2cc(O)c(O)c(O)c2)oc2cc(O)cc(O)c12 [Myricetin (Cannabiscetin)] — higher, -1.08%
- C[C@@H]1O[C@@H](Oc2c(-c3cc(O)c(O)c(O)c3)oc3cc(O)cc(O)c3c2=O)[C@H](O)[C@H](O)[C@H]1O [Myricitrin (Myricitrine)] — higher, -2.22%
- COc1ccccc1N1CCN(CC(O)COc2cccc3ccccc23)CC1 (stereo not shown) [Naftopidil (Flivas)] — lower, -8.14%
- CCn1cc(C(=O)O)c(=O)c2ccc(C)nc21 [Nalidixic acid (NegGram)] — higher, -2.4%
- c1ccc2c(CC3=NCCN3)cccc2c1 [Naphazoline hydrochloride (Naphcon)] — higher, -0.842%
- O=C1C[C@@H](c2ccc(O)cc2)Oc2cc(O)cc(O)c21 [Naringenin] — lower, -3.44%
- C[C@@H]1O[C@@H](O[C@H]2[C@H](Oc3cc(O)c4c(c3)O[C@H](c3ccc(O)cc3)CC4=O)O[C@H](CO)[C@@H](O)[C@@H]2O)[C@H](O)[C@H](O)[C@H]1O [Naringin (Naringoside)] — higher, -0.553%
- C[C@@H]1O[C@@H](O[C@H]2[C@H](Oc3cc(O)c(C(=O)CCc4ccc(O)cc4)c(O)c3)O[C@H](CO)[C@@H](O)[C@@H]2O)[C@H](O)[C@H](O)[C@H]1O [Naringin Dihydrochalcone (Naringin DC)] — higher, 7.97%
- C[C@@H]1C/C=C/C=C/C=C/C=C/[C@H](O[C@@H]2O[C@H](C)[C@@H](O)[C@H](N)[C@@H]2O)C[C@@H]2O[C@](O)(C[C@@H](O)C[C@H]3O[C@@H]3/C=C/C(=O)O1)C[C@H](O)[C@H]2C(=O)O [Natamycin (Pimaricin)] — higher, -0.639%
- CC(C)[C@H]1CC[C@H](C(=O)N[C@H](Cc2ccccc2)C(=O)O)CC1 [Nateglinide (Starlix)] — higher, 42.4%
- O[C@@H](CNC[C@H](O)[C@H]1CCc2cc(F)ccc2O1)[C@@H]1CCc2cc(F)ccc2O1 [Nebivolol (Bystolic)] — higher, -2.64%
- Cc1cccc(C)c1NC(=O)CN1CCCC1=O [Nefiracetam (Translon)] — higher, 7.17%
- COc1nc(N)nc2c1ncn2[C@@H]1O[C@H](CO)[C@@H](O)[C@@H]1O [Nelarabine (Arranon)] — lower, -9.06%
- COc1ccc(CCC(=O)c2c(O)cc(O[C@@H]3O[C@H](CO)[C@@H](O)[C@H](O)[C@H]3O[C@@H]3O[C@@H](C)[C@H](O)[C@@H](O)[C@H]3O)cc2O)cc1O [Neohesperidin dihydrochalcone (Nhdc)] — lower, -3.39%
- COc1ccc([C@@H]2CC(=O)c3c(O)cc(O[C@@H]4O[C@H](CO)[C@@H](O)[C@H](O)[C@H]4O[C@@H]4O[C@@H](C)[C@H](O)[C@@H](O)[C@H]4O)cc3O2)cc1O [Neohesperidin] — higher, 4.46%
- NC[C@@H]1O[C@H](O[C@H]2[C@@H](O)[C@H](O[C@@H]3[C@@H](O)[C@H](N)C[C@H](N)[C@H]3O[C@H]3O[C@H](CN)[C@@H](O)[C@H](O)[C@H]3N)O[C@@H]2CO)[C@H](N)[C@@H](O)[C@@H]1O [Neomycin sulfate] — higher, -1.47%
- CN(C)C(=O)Oc1cccc([N+](C)(C)C)c1 [Neostigmine bromide (Prostigmin)] — higher, -0.504%
- NC(=O)Cc1cccc(C(=O)c2ccccc2)c1N [Nepafenac] — lower, -12.2%
- Cc1ccnc2c1NC(=O)c1cccnc1N2C1CC1 [Nevirapine (Viramune)] — higher, 9.64%
- O=C(O)c1cccnc1 [Niacin (Nicotinic acid)] — higher, -0.509%
- O=C(NCCO[N+](=O)[O-])c1cccnc1 [Nicorandil (Ikorel)] — higher, 51%
- NC(=O)c1cccnc1 [Nicotinamide (Niacinamide)] — higher, -2.77%
- Cc1cn(-c2cc(NC(=O)c3ccc(C)c(Nc4nccc(-c5cccnc5)n4)c3)cc(C(F)(F)F)c2)cn1 [Nilotinib (AMN-107)] — lower, -7.37%
- COCCOC(=O)C1=C(C)NC(C)=C(C(=O)OC(C)C)C1c1cccc([N+](=O)[O-])c1 (stereo not shown) [Nimodipine (Nimotop)] — higher, -0.576%
- COC(=O)C1=C(C)NC(C)=C(C(=O)OCC(C)C)C1c1ccccc1[N+](=O)[O-] (stereo not shown) [Nisoldipine (Sular)] — lower, -2.86%
- NC(=O)N/N=C/c1ccc([N+](=O)[O-])o1 [Nitrofurazone (Nitrofural)] — higher, 29.8%
- CNC(=C[N+](=O)[O-])NCCSCc1csc(CN(C)C)n1 [Nizatidine] — higher, -2.67%
- COc1ccc(-c2cc(=O)c3c(OC)c(OC)c(OC)c(OC)c3o2)cc1OC [Nobiletin (Hexamethoxyflavone)] — higher, -0.471%
- CCn1cc(C(=O)O)c(=O)c2cc(F)c(N3CCNCC3)cc21 [Norfloxacin (Norxacin)] — higher, 2.34%
- CO[C@@H]1[C@@H](OC(N)=O)[C@@H](O)[C@H](Oc2ccc3c(O)c(NC(=O)c4ccc(O)c(CC=C(C)C)c4)c(=O)oc3c2C)OC1(C)C [Novobiocin sodium (Albamycin)] — higher, -0.631%
- C[C@@H]1[C@H](O)[C@@H](C)/C=C/C=C/CC/C=C/C=C/C=C/C=C/[C@H](O[C@@H]2O[C@H](C)[C@@H](O)[C@H](N)[C@@H]2O)C[C@@H]2O[C@](O)(C[C@@H](O)[C@H](O)CC[C@@H](O)C[C@@H](O)C[C@@H](O)CC(=O)O[C@H]1C)C[C@H](O)[C@H]2C(=O)O [Nystatin (Mycostatin)] — higher, 4%
- C#Cc1cccc(Nc2ncnc3cc(OCCOC)c(OCCO)cc23)c1 [OSI-420 (Desmethyl Erlotinib)] — higher, -0.167%
- CC1COc2c(N3CCN(C)CC3)c(F)cc3c(=O)c(C(=O)O)cn1c23 (stereo not shown) [Ofloxacin (Floxin)] — higher, -0.567%
- Cc1cc2c(s1)Nc1ccccc1N=C2N1CCN(C)CC1 [Olanzapine (Zyprexa)] — higher, 12.7%
- CC1(C)CC[C@]2(C(=O)O)CC[C@]3(C)C(=CC[C@@H]4[C@@]5(C)CC[C@H](O)C(C)(C)[C@@H]5CC[C@]43C)[C@@H]2C1 [Oleanolic Acid (Caryophyllin)] — higher, -2%
- CN(C)CC/C=C1/c2ccccc2COc2ccc(CC(=O)O)cc21 [Olopatadine hydrochloride (Opatanol)] — lower, -8.38%
- CCCCCCCCCCC[C@@H](C[C@@H]1OC(=O)[C@H]1CCCCCC)OC(=O)[C@H](CC(C)C)NC=O [Orlistat (Alli, Xenical)] — lower, -9.87%
